Measurements taken from PMC9612427 (Journal of the American Chemical Society, 2022).

What was measured:
[1] = test system: MAPK signaling (phospho-MEK1/2, phospho-ERK1/2) in A375 cells; test: MEK1/2 and ERK1/2 phosphorylation; type: cell-based; details: for inhibition of ERK1/2 phosphorylation after 24 h: highest concentrations (10 μM)
[2] = BBB penetrance: brain and serum drug levels after single IV injection; type: in vivo, mice; details: for Kp at 60 min: mouse, brain and serum, iv, 25 mg/kg
P-glycoprotein (MDR1) = P-glycoprotein (MDR1) (Homo sapiens, UniProt P08183); test: MDR1-MDCK transwell assay; details: for efflux ratio (ER): 10 μM compound, 90 min, substrate when ER ≥ 2.0
[3] = test system: intracranially implanted A375 melanoma cells; test: A375 intracranial mouse model of metastatic melanoma; type: in vivo; details: 50 mg/kg IP once a day, two cycles of 5 days, 10 doses; athymic nude mice
[4] = test system: V600E BRAF tumors in the brain; details: cited from earlier work
P-gp [5] = test: P-gp in vivo assay; details: mice
P-gp [6] = target: P-gp (Homo sapiens, UniProt P08183); test: calcein-AM P-gp inhibition assay in MDR1-MDCK cells; type: cell-based
[7] = test system: V600E BRAF melanoma cell lines; test: 72 h cell viability assay, panel of V600E BRAF melanoma cell lines; type: cell-based; details: read-out: IC50, panel of V600E BRAF melanoma cell lines
cell lines with WT BRAF = test: 72 h cell viability assay, cell lines with WT BRAF; type: cell-based; details: read-out: IC50, cell lines with WT BRAF
[8] = test system: MAPK signaling in CHL-1, a WT BRAF melanoma cell line; test: MEK1/2 and ERK1/2 phosphorylation; type: cell-based; details: CHL-1 (WT BRAF), 1 h, identical treatment
[9] = test system: AM-38 (V600E BRAF) and U118MG, T98G, U87 (WT BRAF) glioma cell lines; test: cell culture cytotoxicity against glioma cell lines; type: cell-based

P-glycoprotein (MDR1), sequence (P08183 whole entry): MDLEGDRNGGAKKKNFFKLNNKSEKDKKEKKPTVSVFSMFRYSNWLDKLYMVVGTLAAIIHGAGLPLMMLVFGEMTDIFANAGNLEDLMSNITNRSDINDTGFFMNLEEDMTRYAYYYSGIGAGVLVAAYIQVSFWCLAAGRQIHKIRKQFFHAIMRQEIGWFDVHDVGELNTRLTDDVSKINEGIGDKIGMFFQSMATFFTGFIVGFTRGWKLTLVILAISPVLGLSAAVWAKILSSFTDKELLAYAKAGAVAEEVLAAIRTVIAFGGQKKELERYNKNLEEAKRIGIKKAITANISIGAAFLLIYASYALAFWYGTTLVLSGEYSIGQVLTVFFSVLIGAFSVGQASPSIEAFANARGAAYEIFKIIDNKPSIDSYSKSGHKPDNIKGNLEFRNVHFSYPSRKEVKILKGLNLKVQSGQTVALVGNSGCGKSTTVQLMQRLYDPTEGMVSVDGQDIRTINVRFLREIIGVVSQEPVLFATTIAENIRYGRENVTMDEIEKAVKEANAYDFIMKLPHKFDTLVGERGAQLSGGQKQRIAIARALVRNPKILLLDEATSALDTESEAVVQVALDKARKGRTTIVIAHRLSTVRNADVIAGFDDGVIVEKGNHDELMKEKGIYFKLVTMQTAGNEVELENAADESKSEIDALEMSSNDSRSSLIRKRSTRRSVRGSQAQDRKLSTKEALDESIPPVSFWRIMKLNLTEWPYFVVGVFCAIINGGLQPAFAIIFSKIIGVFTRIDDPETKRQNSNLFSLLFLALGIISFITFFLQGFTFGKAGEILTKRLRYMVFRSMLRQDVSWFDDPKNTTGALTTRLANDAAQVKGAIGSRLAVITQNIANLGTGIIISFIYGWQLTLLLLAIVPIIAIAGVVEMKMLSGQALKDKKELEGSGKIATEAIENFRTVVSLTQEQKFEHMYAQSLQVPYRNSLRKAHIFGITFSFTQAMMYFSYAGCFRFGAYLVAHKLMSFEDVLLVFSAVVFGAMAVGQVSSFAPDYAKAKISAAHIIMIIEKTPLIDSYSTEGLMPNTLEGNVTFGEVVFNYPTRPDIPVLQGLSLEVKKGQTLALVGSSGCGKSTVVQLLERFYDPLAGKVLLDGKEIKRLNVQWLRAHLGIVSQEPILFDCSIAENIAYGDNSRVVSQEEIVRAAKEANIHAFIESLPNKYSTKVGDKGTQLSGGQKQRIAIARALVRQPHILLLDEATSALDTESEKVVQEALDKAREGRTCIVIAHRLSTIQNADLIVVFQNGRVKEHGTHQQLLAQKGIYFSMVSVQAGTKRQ
P-gp (Homo sapiens, UniProt P08183), sequence (P08183 whole entry): as above

Question: For `CCCS(=O)(=O)Nc1ccc(F)c(C(=O)c2c[nH]c3ncc(Cl)cc23)c1F` [PLX4720], which “inhibition of ERK1/2 phosphorylation after 24 h” value [1] is on record?
Answer: diminished inhibition

Question: And the Kp at 60 min [2]?
Answer: 0.0014 to 0.0069

Question: With `Cn1cnc2c(F)c(Nc3ccc(Br)cc3F)c(C(=O)NOCCO)cc21` [binimetinib] as the compound, how does the “efflux ratio (ER)” value (P-glycoprotein (MDR1); MDR1-MDCK transwell) read?
Answer: high ERs

Question: Which “efflux ratio (ER)” value (P-glycoprotein (MDR1); MDR1-MDCK transwell) does the source give for `COC(=O)c1cn2c3c(c(N4CCN(C)CC4)c(F)cc3c1=O)OC[C@@H]2C` [compound 7] here?
Answer: 5.66

Question: Which results are given for `CC(C)(C)c1nc(-c2cccc(NS(=O)(=O)c3c(F)cccc3F)c2F)c(-c2ccnc(N)n2)s1` [dabrafenib]?
Answer: inhibition of ERK1/2 phosphorylation after 24 h [1]: diminished inhibition; Kp at 60 min [2]: 0.0014 to 0.0069; median survival [3]: 39 days; duration of intracranial response ([4]; combined with trametinib, melanoma brain metastases, clinical trials): 6.5 months; fold increase of brain-to-serum ratio by P-gp inhibition (elacridar) (P-gp [5]; 15 min, 2.5 mg/kg elacridar IV 30 min before 25 mg/kg compound IV): 4.3 fold

Question: With `COc1cc2c(cc1OC)CN(CCc1ccc(NC(=O)c3cccc4c(=O)c5cccc(OC)c5[nH]c34)cc1)CC2` [elacridar] as the compound, how does the “P-gp inhibition (calcein-AM fluorescence)” value (P-gp [6]) read?
Answer: robust inhibition

Question: With `COC(=O)N[C@@H](C)CNc1nccc(-c2cn(C(C)C)nc2-c2cc(Cl)cc(NS(C)(=O)=O)c2F)n1` [encorafenib] as the compound, how does the Kp at 60 min [2] read?
Answer: 0.0014 to 0.0069

Question: Which results are given for `CCCS(=O)(=O)Nc1cc(Cl)cc(-c2nc(C(C)(C)C)sc2-c2ccnc(N)n2)c1F` [everafenib]?
Answer: IC50 [7]: 2 to 10 nM; IC50 (cell lines with WT BRAF): > 1000 nM; inhibition of MAPK signaling (MEK1/2 and ERK1/2 phosphorylation) ([1]; 1 h, 1 μM everafenib, 10 μM everafenib-CO2H): strongly inhibited; inhibition of ERK1/2 phosphorylation after 24 h [1]: sustained; inhibition of MAPK signaling [8]: not observed; brain-to-serum ratio ([2]; mice, 60 min after single 25 mg/kg IV injection): 0.286 ng/g:ng/mL; median survival [3]: 50.5 days; cytotoxicity against AM-38 ([9]; AM-38, glioblastoma cell line with V600E BRAF): comparable cytotoxicity to dabrafenib; activity against glioma cell-lines with WT BRAF ([9]; U118MG, T98G, U87): no activity; permeability (Papp) (P-glycoprotein (MDR1); MDR1-MDCK transwell, A–B and B–A directions): 4.9 to 6.4 ×10⁻⁶ cm/s; potentiation of brain penetrance with elacridar (P-gp [5]; time not given): did display potentiation with elacridar

Question: For `COc1cc2nc(N3CCN(C(=O)c4ccco4)CC3)nc(N)c2cc1OC` [prazosin], which “efflux ratio (ER)” value (P-glycoprotein (MDR1); MDR1-MDCK transwell) is on record?
Answer: high ERs

Question: What does the source list for `C=C[C@H]1C[N@@]2CC[C@H]1C[C@@H]2[C@@H](O)c1ccnc2ccc(OC)cc12` [quinidine]?
Answer: P-gp inhibition (calcein-AM fluorescence) (P-gp [6]): robust inhibition; efflux ratio (ER) (P-glycoprotein (MDR1); MDR1-MDCK transwell): high ERs

Question: Which Papp at 90 min, 10 μM (P-glycoprotein (MDR1); human, MDCK-MDR1) does the source give for `CC(C)(C)c1ccc(C(O)CCCN2CCC(C(O)(c3ccccc3)c3ccccc3)CC2)cc1` (stereo not shown) [terfenadine] here?
Answer: 1.2 ×10⁻⁶ cm/s

Question: With `CCCS(=O)(=O)Nc1ccc(F)c(C(=O)c2c[nH]c3ncc(-c4ccc(Cl)cc4)cc23)c1F` [vemurafenib] as the compound, how does the patients responding ([4]; pleomorphic xanthoastrocytoma patients, histology agnostic trial) read?
Answer: four out of seven

Question: And the “efflux ratio (ER)” value (P-glycoprotein (MDR1); MDR1-MDCK transwell)?
Answer: high ERs
